From patent US7371748B2, “Benzothiazole derivatives” (Hoffman-La Roche Inc., priority 2003, dated 2008)
Like-named read-outs stand apart in the source and are kept apart here.

What was measured:
[1] = target: T1, human adenosine A2A receptor (Homo sapiens, UniProt P29274); assay: [3H]-SCH-58261 binding assay, human adenosine A2A receptor; conditions: human A2A receptor recombinantly expressed in CHO cell membranes, [3H]-SCH-58261 1 nM, Ki from IC50 by Cheng-Prussoff equation
T1 construct: expressed in transfected cells; host or cells: CHO cells, Semliki Forest virus expression system; membrane preparation
Method: Human Adenosine A2A Receptor
The human adenosine A2A receptor was recombinantly expressed in chinese hamster ovary (CHO) cells using the semliki forest virus expression system. Cells were harvested, washed twice by centrifugation, homogenized and again washed by centrifugation. The final washed membrane pellet was suspended in a Tris (50 mM) buffer containing 120 mM NaCl, 5 mM KCl, 2 mM CaCl2 and 10 mM MgCl2 (pH 7.4) (buffer A). The [^3H]-SCH-58261 (Dionisotti et al., […], Br J Pharmacol 121, 353; 1 nM) binding assay was carried out in 96-well plates in the presence of 2.5 μg of membrane protein, 0.5 mg of Ysi-poly-1-lysine SPA beads and 0.1 U adenosine deaminase in a final volume of 200 μl of buffer A. Non-specific binding was defined using xanthine amine congener (XAC; 2 μM). Compounds were tested at 10 concentrations from 10 μM-0.3 nM. All assays were conducted in duplicate and repeated at least two times. Assay plates were incubated for 1 hour at room temperature before centrifugation and then bound ligand determined using a Packard Topcount scintillation counter. IC50 values were calculated using a non-linear curve fitting program and Ki values calculated using the Cheng-Prussoff equation.

[2] = read-out: Ha2 (pKi) (converted)

T1 sequence (P29274 whole entry): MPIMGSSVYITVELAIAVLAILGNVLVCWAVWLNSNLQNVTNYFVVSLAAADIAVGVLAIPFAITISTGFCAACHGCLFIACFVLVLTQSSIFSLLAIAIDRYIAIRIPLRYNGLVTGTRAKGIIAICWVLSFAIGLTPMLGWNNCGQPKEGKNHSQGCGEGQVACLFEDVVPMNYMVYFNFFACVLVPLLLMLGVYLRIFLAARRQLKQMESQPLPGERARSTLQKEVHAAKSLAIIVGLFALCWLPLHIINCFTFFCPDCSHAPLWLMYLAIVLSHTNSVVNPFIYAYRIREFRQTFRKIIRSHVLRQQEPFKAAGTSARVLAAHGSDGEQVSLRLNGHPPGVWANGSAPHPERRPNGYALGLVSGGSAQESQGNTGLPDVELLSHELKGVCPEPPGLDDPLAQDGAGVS

Row | SMILES | Ki [1, 2] [nM] | melting point [°C] | Ki ([1]; Ha2 (pKi)) [nM]
1 | COc1ccc(C2CCOCC2)c2sc(NC(=O)C[C@H]3CC[C@H](O)CC3)nc12 [Example 50, (trans)-2-(4-Hydroxy-cyclohexyl)-N-[4-methoxy-7-(tetrahydro-pyran-4-yl)-benzothiazol-2-yl]-acetamide] | 2.51 | 120 to 145 | –
2 | COc1ccc(C2CCOCC2)c2sc(NC(=O)N(C)C3CC4CCC3O4)nc12 (single isomer, unassigned) [Example 56, (exo)-(−)-3-[4-Methoxy-7-(tetrahydro-pyran-4-yl]-benzothiazol-2-yl)-1-methyl-1-(7-oxa-bicyclo[2.2.1]hept-2-yl)-urea] | 3.16 | 155 to 190 | –
3 | COc1ccc(C2CCOCC2)c2sc(NC(=O)CC3CCCO3)nc12 (stereo not drawn) [Example 54, N-[4-Methoxy-7-(tetrahydro-pyran-4-yl)-benzothiazol-2-yl]-2-(tetrahydro-furan-2-yl)-acetamide] | – | 170 to 174 | –
4 | COc1ccc(C2COCCOC2)c2sc(NC(=O)c3cnn(C)c3)nc12 [Example 43, 1-Methyl-1H-pyrazole-4-carboxylic acid (7-[1,4]dioxepan-6-yl-4-methoxy-benzothiazol-2-yl)-amide] | 0.398 | – | –
5 | COc1ccc(C2CCOCC2)c2sc(NC(=O)CC3CCOCC3)nc12 [Example 33, N-[4-Methoxy-7-(tetrahydro-pyran-4-yl)-benzothiazol-2-yl]-2-(tetrahydro-pyran-4-yl)-acetamide] | 1.58 | 218 to 220 | –
6 | COc1ccc(C2COCCOC2)c2sc(NC(=O)c3cncn3C)nc12 [Example 14, 3-Methyl-3H-imidazole-4-carboxylic acid (7-[1,4]dioxepan-6-yl-4-methoxy-benzothiazol-2-yl)-amide] | 1 | – | –
7 | COc1ccc(C2CCOCC2)c2sc(NC(=O)N3CC4CCC3CC4)nc12 [Example 32, 2-Aza-bicyclo[2.2.2]octane-2-carboxylic acid [4-methoxy-7-(tetrahydro-pyran-4-yl)-benzothiazol-2-yl]-amide] | 2 | 237 to 239 | –
8 | COc1ccc(C2CCOCC2)c2sc(NC(=O)N3CCC4(CC3)OCCO4)nc12 [Example 29, 1,4-Dioxa-8-aza-spiro[4.5]decane-8-carboxylic acid [4-methoxy-7-(tetrahydro-pyran-4-yl)-benzothiazol-2-yl]-amide] | – | – | 1.58
9 | COc1ccc(C2CCOCC2)c2sc(NC(=O)N(C)[C@H]3CC[C@H](O)CC3)nc12 [Example 21, trans-1-(4-Hydroxy-cyclohexyl)-3-[4-methoxy-7-(tetrahydro-pyran-4-yl)-benzothiazol-2-yl]-1-methyl-urea] | 2.51 | 160 | –
10 | COc1ccc(C2CCOCC2)c2sc(NC(=O)c3ccnc(CN4CCOCC4)c3)nc12 [Example 34, N-[4-Methoxy-7-(tetrahydro-pyran-4-yl)-benzothiazol-2-yl]-2-morpholin-4-ylmethyl-isonicotinamide] | 2 | 199 to 201 | –
11 | COc1ccc(C2CCOCC2)c2sc(NC(=O)N3CCC(C)(O)CC3)nc12 [Example 30, 4-Hydroxy-4-methyl-piperidine-1-carboxylic acid [4-methoxy-7-(tetrahydro-pyran-4-yl)-benzothiazol-2-yl]-amide] | 1.26 | 90 to 95 | –
12 | COc1ccc(C2CCOCC2)c2sc(NC(=O)N(C)C3CCN(N(C)C)CC3)nc12 [Example 53, 1-(1-Dimethylamino-piperidin-4-yl)-3-[4-methoxy-7-(tetrahydro-pyran-4-yl)-benzothiazol-2-yl]-1-methyl-urea] | – | 167 to 170 | –
13 | COc1ccc(C2COCCOC2)c2sc(NC(=O)c3ccc(CCl)cc3)nc12 [Example 39, 4-Chloromethyl-N-(7-[1,4]dioxepan-6-yl-4-methoxy-benzothiazol-2-yl)-benzamide] | 1.58 | – | –
14 | COc1ccc(C2CCOCC2)c2sc(NC(=O)N(C)[C@H]3CC[C@@](C)(O)CC3)nc12 [Example 23, 1-(4-cis-Hydroxy-4-methyl-cyclohexyl)-3-[4-methoxy-7-(tetrahydro-pyran-4-yl)-benzothiazol-2-yl]-1-methyl-urea] | 2 | 211 to 213 | –
15 | COc1ccc(C2COCCOC2)c2sc(NC(=O)c3ccnc(CN4CCCC4)c3)nc12 [Example 47, N-(7-[1,4]Dioxepan-6-yl-4-methoxy-benzothiazol-2-yl)-2-pyrrolidin-1-ylmethyl-isonicotinamide] | – | 108 to 111 | –
16 | COCCNCc1cc(C(=O)Nc2nc3c(OC)ccc(C4CCOCC4)c3s2)ccn1 [Example 35, 2-[(2-Methoxy-ethylamino)-methyl]-N-[4-methoxy-7-(tetrahydro-pyran-4-yl)-benzothiazol-2-yl]-isonicotinamide] | 1.58 | 93 to 95 | –

Row | SMILES | Ki [1, 2] [nM] | melting point [°C] | Ki ([1]; Ha2 (pKi)) [nM]
17 | COc1ccc(C2CCOCC2)c2sc(NC(=O)N3C[C@@H]4C[C@H]3CO4)nc12 [Example 31, (1S,4S)-2-Oxa-5-aza-bicyclo[2.2.1]heptane-5-carboxylic acid [4-methoxy-7-(tetrahydro-pyran-4-yl)-benzothiazol-2-yl]-amide] | 1.26 | 193 to 197 | –
18 | COc1ccc(C2CCOCC2)c2sc(NC(=O)N(C)CC3CCOC3)nc12 (stereo not drawn) [Example 25, 3-[4-Methoxy-7-(tetrahydro-pyran-4-yl)-benzothiazol-2-yl]-1-methyl-1-(tetrahydro-furan-3-ylmethyl)-urea] | – | 185 to 186 | –
19 | COc1ccc(C2COCCOC2)c2sc(NC(=O)c3ccc(C)s3)nc12 [Example 8, 5-Methyl-thiophene-2-carboxylic acid (7-[1,4]dioxepan-6-yl-4-methoxy-benzothiazol-2-yl)-amide] | 1 | – | –
20 | COc1ccc(C2CCOCC2)c2sc(NC(=O)N(C)C3CCOCC3)nc12 [Example 24, 3-[4-Methoxy-7-(tetrahydro-pyran-4-yl)-benzothiazol-2-yl]-1-methyl-1-(tetrahydro-pyran-4-yl)-urea] | 3.16 | 237 to 238 | –
21 | COc1ccc(C(=O)Nc2nc3c(OC)ccc(C4COCCOC4)c3s2)cc1 [Example 9, N-(7-[1,4]Dioxepan-6-yl-4-methoxy-benzothiazol-2-yl)-4-methoxy-benzamide] | 2 | – | –
22 | COc1ccc(C2CCOCC2)c2sc(NC(=O)N(C)[C@H]3CC[C@@H](O)CC3)nc12 [Example 22, cis-1-(4-Hydroxy-cyclohexyl)-3-[4-methoxy-7-(tetrahydro-pyran-4-yl)-benzothiazol-2-yl]-1-methyl-urea] | 2.51 | 191 to 193 | –
23 | COCCN(C)Cc1cc(C(=O)Nc2nc3c(OC)ccc(C4COCCOC4)c3s2)ccn1 [Example 48, N-(7-[1,4]Dioxepan-6-yl-4-methoxy-benzothiazol-2-yl)-2-{[(2-methoxy-ethyl)-methyl-amino]-methyl}-isonicotinamide] | – | 100 to 107 | –
24 | COc1ccc(C2CCOCC2)c2sc(NC(=O)N3CCC(CO)CC3)nc12 [Example 52, 4-Hydroxymethyl-piperidine-1-carboxylic acid [4-methoxy-7-(tetrahydro-pyran-4-yl)-benzothiazol-2-yl]-amide] | 1 | 202 to 203.5 | –
25 | COc1ccc(C2CCOCC2)c2sc(NC(=O)N(C)C3CC4CCC3O4)nc12 (racemic) [Example 26, (rac)-(exo)-3-[4-Methoxy-7-(tetrahydro-pyran-4-yl)-benzothiazol-2-yl]-1-methyl-1-(7-oxa-bicyclo[2.2.1]hept-2-yl)-urea] | 1 | 197 to 200 | –
26 | COc1ccc(C2COCCOC2)c2sc(NC(=O)C3CCCCC3)nc12 [Example 11, Cydohexanecarboxylic acid (7-[1,4]dioxepan-6-yl-4-methoxy-benzothiazol-2-yl)-amide] | 2.51 | – | –
27 | COc1ccc(C2COCCOC2)c2sc(NC(=O)c3ccncc3)nc12 [Example 15, N-(7-[1,4]Dioxepan-6-yl-4-methoxy-benzothiazol-2-yl)-isonicotinamide] | 2 | – | –
28 | COc1ccc(C2CCOCC2)c2sc(NC(=O)[C@H]3CCCO3)nc12 [Example 51, (R)-Tetrahydro-furan-2-carboxylic acid [4-methoxy-7-(tetrahydro-pyran-4-yl)-benzothiazol-2-yl]-amide] | – | 158 to 161 | –
29 | COc1ccc(C2COCCOC2)c2sc(NC(=O)c3ccc(F)cc3)nc12 [Example 10, N-(7-[1,4]Dioxepan-6-yl-4-methoxy-benzothiazol-2-yl)-4-fluoro-benzamide] | 1.26 | – | –
30 | CCC(=O)N(C)Cc1ccc(C(=O)Nc2nc3c(OC)ccc(C4COCCOC4)c3s2)cc1 [Example 44, N-(7-[1,4]Dioxepan-6-yl-4-methoxy-benzothiazol-2-yl)-4-[(methyl-propionyl-amino)-methyl]-benzamide] | 2.51 | – | –
31 | COc1ccc(C2COCCOC2)c2sc(NC(=O)c3ccnc(N4CCCC4)c3)nc12 [Example 46, N-(7-[1,4]Dioxepan-6-yl-4-methoxy-benzothiazol-2-yl)-2-pyrrolidin-1-yl-isonicotinamide] | 2.51 | – | –
